The target of the test is T1, rat B1R (bradykinin receptor 1) (Rattus norvegicus, UniProt P97583).
T1 construct: expressed in transfected cells; host or cells: CHO K1 cells
T1 sequence (P97583 1-337): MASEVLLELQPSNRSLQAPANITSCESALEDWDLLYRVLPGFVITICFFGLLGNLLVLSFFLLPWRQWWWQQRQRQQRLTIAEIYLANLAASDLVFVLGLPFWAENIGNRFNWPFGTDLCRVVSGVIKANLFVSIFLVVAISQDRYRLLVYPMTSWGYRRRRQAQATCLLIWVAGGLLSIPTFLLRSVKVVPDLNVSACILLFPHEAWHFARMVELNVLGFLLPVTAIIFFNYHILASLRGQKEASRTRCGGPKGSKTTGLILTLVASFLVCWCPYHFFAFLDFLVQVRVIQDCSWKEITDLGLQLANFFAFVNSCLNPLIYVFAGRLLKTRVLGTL
Kind of test: FLIPR Ca2+ assay (Fluo-4) on CHO K1 cells stably transfected with the B1R gene of the rat (rB1R cells): % inhibition at 10 μM / IC50, agonist Des-Arg9-bradykinin. The format is cell-based. The note with it: CHO-K1, rat B1R. Summed up: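 Stably transfected CHO K1 cells loaded with Fluo-4 and read on FLIPR (λex 488, λem 540 nm; peak fluorescence). Test substance (10 μM) added first, then after 10–20 min the agonist at EC80; % inhibition versus maximum achievable inhibition. IC50 from several concentrations, n=2–3, N≥2.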

The structures appear in SMILES notation.

As usually defined, the inhibition is the drop in the measured response relative to a control, in per cent. `CC(=O)NC1CCc2ccc(C(=O)N3CCC4(CCN(c5ccncc5)CC4)C3)cc21` (stereo not shown) [IND_CC-375, N-[6-(8-Pyridin-4-yl-2,8-diazaspiro[4.5]decane-2-carbonyl)-2,3-dihydro-1H-inden-1-yl]-acetamide]: the inhibition at 10 µM amounted to 59%.

For the compound `O=C(NC1CCc2ccc(C(=O)N3CCC4(CCN(C(=O)c5ccc(F)cc5Cl)CC4)C3)cc21)c1ccccc1Cl` (stereo not shown) [IND_CC-575, 2-Chloro-N-[6-[8-(2-chloro-4-fluoro-benzoyl)-2,8-diazaspiro[4.5]decane-2-carbonyl]-2,3-dihydro-1H-inden-1-yl]-benzamide], the inhibition at 10 µM turned out to be 78%.

For `O=C(NC1CCc2ccc(C(=O)N3CCC4(CCN(CCCc5ccc(F)cc5)CC4)C3)cc21)c1cc(C(F)(F)F)ccc1Cl` (stereo not shown) [IND_CC-692, 2-Chloro-N-[6-[8-[3-(4-fluorophenyl)-propyl]-2,8-diazaspiro[4.5]decane-2-carbonyl]-2,3-dihydro-1H-inden-1-yl]-5-(trifluoromethyl)-benzamide], the inhibition at 10 µM is 99%.

Turning to `O=C(NC1CCc2ccc(C(=O)N3CCC4(CCN(c5ccncc5)CC4)C3)cc21)C1CCC1` (stereo not shown) [IND_CC-415, N-[6-(8-Pyridin-4-yl-2,8-diazaspiro[4.5]decane-2-carbonyl)-2,3-dihydro-1H-inden-1-yl]-cyclobutanecarboxylic acid amide], the inhibition at 10 µM amounted to 100%.

Turning to `Cc1noc(C)c1CN1CCC2(CC1)CCN(C(=O)c1ccc3c(c1)C(NC(=O)c1cc(C(F)(F)F)ccc1Cl)CC3)C2` (stereo not shown) [IND_CC-657, 2-Chloro-N-[6-[8-[(3,5-dimethyl-isoxazol-4-yl)-methyl]-2,8-diazaspiro[4.5]-decane-2-carbonyl]-2,3-dihydro-1H-inden-1-yl]-5-(trifluoromethyl)-benzamide], the inhibition at 10 µM is 66%.

Consider `O=C(NC1CCc2ccc(C(=O)N3CCC4(CCN(Cc5ccc6nccnc6c5)CC4)CC3)cc21)c1cc(C(F)(F)F)ccc1Cl` (stereo not shown) [IND_CC-696, 2-Chloro-N-[6-[9-(quinoxalin-6-yl-methyl)-3,9-diazaspiro[5.5]undecane-3-carbonyl]-2,3-dihydro-1H-inden-1-yl]-5-(trifluoromethyl)-benzamide], for which the inhibition at 10 µM amounted to 102%.

As for `CN(C(=O)c1ccccc1Cl)C1CCc2ccc(C(=O)N3CCC4(CCN(C(=O)c5cc(C(C)(C)C)nn5C)CC4)C3)cc21` (stereo not shown) [IND_CC-593, N-[6-[8-(5-tert-Butyl-2-methyl-2H-pyrazole-3-carbonyl)-2,8-diazaspiro[4.5]-decane-2-carbonyl]-2,3-dihydro-1H-inden-1-yl]-2-chloro-N-methyl-benzamide], the inhibition at 10 µM is 50%.

Regarding `Cc1ccc(C(=O)NC2c3cc(C(=O)N4CCC5(CC4)CCN(c4ccncc4)CC5)ccc3CC2(C)C)c(F)c1` (stereo not shown) [IND_CC-317, N-[2,2-Dimethyl-6-(9-pyridin-4-yl-3,9-diazaspiro[5.5]undecane-3-carbonyl)-1,3-dihydro-inden-1-yl]-2-fluoro-4-methyl-benzamide], the inhibition at 10 µM stood at 60%.

With `CN(C)c1ncc(CN2CCC3(CC2)CCN(C(=O)c2ccc4c(c2)C(NC(=O)c2cc(C(F)(F)F)ccc2Cl)CC4)CC3)cn1` (stereo not shown) [IND_CC-694, 2-Chloro-N-[6-[9-[(2-dimethylamino-pyrimidin-5-yl)-methyl]-3,9-diazaspiro[5.5]-undecane-3-carbonyl]-2,3-dihydro-1H-inden-1-yl]-5-(trifluoromethyl)-benzamide], the inhibition at 10 µM is 100%.

With `Cc1cccc(Cl)c1C(=O)NC1CCc2ccc(C(=O)N3CCC4(CCN(Cc5ccc(F)cc5Cl)CC4)C3)cc21` (stereo not shown) [IND_CC-734, 2-Chloro-N-[6-[8-[(2-chloro-4-fluoro-phenyl)-methyl]-2,8-diazaspiro-[4.5]decane-2-carbonyl]-2,3-dihydro-1H-inden-1-yl]-6-methyl-benzamide], the inhibition at 10 µM was 95%.

`Cc1cc(F)ccc1S(=O)(=O)NC1c2cc(C(=O)N3CCC4(CC3)CCN(c3ccncc3)CC4)ccc2CC1(C)C` (stereo not shown) [IND_CC-338, N-[2,2-Dimethyl-6-(9-pyridin-4-yl-3,9-diazaspiro[5.5]undecane-3-carbonyl)-1,3-dihydro-inden-1-yl]-4-fluoro-2-methyl-benzenesulfonic acid amide]: the inhibition at 10 µM was 103%.

On to `O=C(NC1CCc2ccc(C(=O)N3CCC4(CCN(Cc5ccc(F)cc5F)CC4)C3)cc21)c1cc(Cl)ccc1F` (stereo not shown) [IND_CC-622, 5-Chloro-N-[6-[8-[(2,4-difluoro-phenyl)-methyl]-2,8-diazaspiro[4.5]decane-2-carbonyl]-2,3-dihydro-1H-inden-1-yl]-2-fluoro-benzamide], for which the inhibition at 10 µM turned out to be 69%.

On to `CN(C)c1ncc(CN2CCC3(CC2)CCN(C(=O)c2ccc4c(c2)C(NC(=O)c2cccc(Cl)c2Cl)CC4)CC3)cn1` (stereo not shown) [IND_CC-753, 2,3-Dichloro-N-[6-[9-[(2-dimethylamino-pyrimidin-5-yl)-methyl]-3,9-diazaspiro[5.5]undecane-3-carbonyl]-2,3-dihydro-1H-inden-1-yl]-benzamide], for which the inhibition at 10 µM was 90%.

Turning to `Cc1cccc(Cl)c1C(=O)NC1CCc2ccc(C(=O)N3CCC4(CCN(Cc5cccc(C#N)c5)CC4)C3)cc21` (stereo not shown) [IND_CC-732, 2-Chloro-N-[6-[8-[(3-cyano-phenyl)-methyl]-2,8-diazaspiro[4.5]decane-2-carbonyl]-2,3-dihydro-1H-inden-1-yl]-6-methyl-benzamide], the inhibition at 10 µM was 100%.

Consider `COc1ccc(CN2CCC3(CC2)CCN(C(=O)c2ccc4c(c2)C(N2Cc5c(c6c(Cl)cccc6n5C)C2=O)CC4)C3)cc1F` (stereo not shown) [IND_CC-794, 8-Chloro-2-[6-[8-[(3-fluoro-4-methoxy-phenyl)-methyl]-2,8-diazaspiro[4.5]-decane-2-carbonyl]-2,3-dihydro-1H-inden-1-yl]-4-methyl-3,4-dihydro-2H-pyrrolo[3,4-b]indol-1-one], for which the inhibition at 10 µM was 59%.

In the case of `O=C(NC1CCc2ccc(C(=O)N3CCC4(CCN(C(=O)Nc5ccc(F)cc5F)CC4)CC3)cc21)c1ccccc1Cl` (stereo not shown) [IND_CC-711, 3-[3-[(2-Chloro-benzoyl)amino]-2,3-dihydro-1H-indene-5-carbonyl]-N-(2,4-difluoro-phenyl)-3,9-diazaspiro[5.5]undecane-9-carboxylic acid amide], the inhibition at 10 µM came to 94%.

For `O=C(NC1CCc2ccc(C(=O)N3CCC4(CCN(Cc5ccc(F)cc5Cl)CC4)CC3)cc21)c1ccccc1Cl` (stereo not shown) [IND_CC-529, 2-Chloro-N-[6-[9-[(2-chloro-4-fluoro-phenyl)-methyl]-3,9-diazaspiro[5.5]undecane-3-carbonyl]-2,3-dihydro-1H-inden-1-yl]-benzamide], the inhibition at 10 µM stood at 104%.

Consider `CC1(C)Cc2ccc(C(=O)N3CCC4(CC3)CCN(c3ccncc3)CC4)cc2C1NS(=O)(=O)c1ccc(Cl)cc1Cl` (stereo not shown) [IND_CC-334, 2,4-Dichloro-N-[2,2-dimethyl-6-(9-pyridin-4-yl-3,9-diazaspiro[5.5]undecane-3-carbonyl)-1,3-dihydro-inden-1-yl]-benzenesulfonic acid amide], for which the inhibition at 10 µM stood at 90%.

For the compound `COc1ccc(C(=O)NC2CCc3ccc(C(=O)N4CCC5(CC4)CCN(c4ccncc4)CC5)cc32)c(F)c1` (stereo not shown) [IND_CC-297, 2-Fluoro-4-methoxy-N-[6-(9-pyridin-4-yl-3,9-diazaspiro[5.5]undecane-3-carbonyl)-2,3-dihydro-1H-inden-1-yl]-benzamide], the inhibition at 10 µM worked out at 107%.

In the case of `O=C(NC1CCc2ccc(C(=O)N3CCC4(CCN(Cc5ccncc5)CC4)CC3)cc21)c1c(F)cccc1Cl` (stereo not shown) [IND_CC-785, 2-Chloro-6-fluoro-N-[6-[9-(pyridin-4-yl-methyl)-3,9-diazaspiro[5.5]undecane-3-carbonyl]-2,3-dihydro-1H-inden-1-yl]-benzamide], the inhibition at 10 µM was 98%.

On to `O=C(NC1CCc2ccc(C(=O)N3CCC4(CCN(Cc5c(F)cccc5F)CC4)CC3)cc21)c1c(F)cccc1Cl` (stereo not shown) [IND_CC-788, 2-Chloro-N-[6-[9-[(2,6-difluoro-phenyl)-methyl]-3,9-diazaspiro[5.5]undecane-3-carbonyl]-2,3-dihydro-1H-inden-1-yl]-6-fluoro-benzamide], for which the inhibition at 10 µM worked out at 71%.

As for `CC(C)CN1CCC2(CC1)CCN(C(=O)c1ccc3c(c1)C(NC(=O)c1c(F)cccc1Cl)CC3)C2` (stereo not shown) [IND_CC-777, 2-Chloro-6-fluoro-N-[6-[8-(2-methyl-propyl)-2,8-diazaspiro[4.5]decane-2-carbonyl]-2,3-dihydro-1H-inden-1-yl]-benzamide], the inhibition at 10 µM is 83%.

Consider `Cc1cc(C(=O)N2CCC3(CCN(C(=O)c4ccc5c(c4)C(NC(=O)c4ccccc4Cl)CC5)C3)CC2)n(C(C)(C)C)n1` (stereo not shown) [IND_CC-579, N-[6-[8-(2-tert-Butyl-5-methyl-2H-pyrazole-3-carbonyl)-2,8-diazaspiro-[4.5]decane-2-carbonyl]-2,3-dihydro-1H-inden-1-yl]-2-chloro-benzamide], for which the inhibition at 10 µM came out at 57%.

As to `O=C(NC1CCc2ccc(C(=O)N3CCC4(CCN(Cc5ccc(F)cc5F)CC4)CC3)cc21)c1cc(Cl)ccc1F` (stereo not shown) [IND_CC-629, 5-Chloro-N-[6-[9-[(2,4-difluoro-phenyl)-methyl]-3,9-diazaspiro[5.5]undecane-3-carbonyl]-2,3-dihydro-1H-inden-1-yl]-2-fluoro-benzamide], the inhibition at 10 µM was 71%.

Regarding `Cc1cccc(Cl)c1C(=O)NC1CCc2ccc(C(=O)N3CCC4(CCN(CCc5ccccc5)CC4)C3)cc21` (stereo not shown) [IND_CC-769, 2-Chloro-6-methyl-N-[6-(8-phenethyl-2,8-diazaspiro[4.5]decane-2-carbonyl)-2,3-dihydro-1H-inden-1-yl]-benzamide], the inhibition at 10 µM was 91%.

The values above are taken from patent US8455475B2 (Gruenenthal GmbH, priority 2009, dated 2013).
